Key:
A549 = test: MTT cell viability assay, A549; type: cell-based, human; conditions: mean ± SE
Method: (§1) HeLa, A549, HepG2, HL-60, and WI-38 cell lines were incubated in DMEM solution containing 10% FBS for 48 h. The incubated tumor cells were seeded into 96-well plates (5 × 10^3 cells/well) to make them attach for 12 h. Afterwards, the cells were processed with the various concentrations of the synthetic compounds and 5-FU for 48 h. After removing the cell culture supernatant, 10 µl MTT (5 mg/ml) solution was dripped into the cells to generate a formazan product, which were dissolved by dimethyl sulfoxide (DMSO) 4 h later. Multifunction microplate reader (Bio-Rad Laboratories, Shanghai, China) was adopted to measure the absorbance at the wave length of 490 nm. The IC50 (the lowest drug concentration causing 50% of the tumor cells inhibition) was then calculated using GraphPad Prism Software (version 5.02) and used to indicate the cytotoxic effect of the target compounds on the selected tumor cells.

Hela = test: MTT cell viability assay, Hela; type: cell-based, human; conditions: 48 h, mean ± SE
Method: as §1

HepG2 = test: MTT cell viability assay, HepG2; type: cell-based, human; conditions: mean ± SE
Method: as §1

HL-60 = test: MTT cell viability assay, HL-60; type: cell-based, human; conditions: mean ± SE
Method: as §1

WI-38 = test: MTT cell viability assay, normal cell line WI-38; type: cell-based, human; conditions: normal cells, mean ± SE
Method: as §1

[1] = system: adherent tumor cell lines (HepG2, A549 and Hela); test: MTT assay, summary over adherent tumor cell lines; type: cell-based; conditions: Homo sapiens; span of IC50 over compounds a11-a14 and adherent tumor cell lines; read-out: IC50 range over cell lines
Method: as §1

[2] = system: mitochondrial membrane potential in HepG2 cells; test: Mitochondrial membrane potential by JC-1 probe; type: cell-based, human; conditions: CCCP for 20 min, without a14, positive control
Method: JC-1 probe was used to detect changes in MMP. Firstly, HepG2 cells (3 × 10^5 cells/well) were seeded into a six-well plate overnight for adherence, and then treated with various concentrations of a14 for 48 h. Next, the cells were treated with JC-1 (2.5 µg/ml) at 37°C for 10 min in the dark and rinsed three times with PBS. Then, the six-well plate was placed under the fluorescence microscope (excitation 480/30× nm, emission 515 nm) to observe the fluorescence color and intensity of JC-1 in the cells. In addition, HepG2 cells (3 × 10^5 cells/well) were inoculated on another six-well plate overnight to allow adherence, and then treated with a14 (50 µM) for 0, 12, 24, 36, and 48 h, adding CCCP (without a14) for 20 min to completely lose the mitochondrial membrane potential. Cells were then incubated with JC-1 (2.5 µg/ml) at 37°C in the dark for 10 min and rinsed with PBS for three times. Fluorescence intensity of residual JC-1 in cells was measured by Beckman Coulter flow cytometer (FITC, 525/40BP). The data obtained was analyzed by CytExpert 2.0 software imbedded in the flow cytometry.

COc1ccc(/C=C/C(=O)c2ccc(O)c(C(N)=O)c2)cc1 [a11]
IC50 (A549; Homo sapiens, A549, 48 h): 35.8 ± 1.02 µM
IC50 (Hela; Homo sapiens, HeLa): 48.2 ± 0.56 µM
IC50 (HepG2; Homo sapiens, HepG2, 48 h): 44.7 ± 1.56 µM
IC50 (HL-60; Homo sapiens, HL-60, 48 h): 245 ± 5.54 µM
IC50 (WI-38; Homo sapiens, WI-38, 48 h): 89.5 ± 6.61 µM
IC50 [1]: 23.3 to 54.4 µM

Cc1cccc(/C=C/C(=O)c2ccc(O)c(C(N)=O)c2)c1 [a7]
IC50 (A549; Homo sapiens, A549, 48 h): 40.7 ± 3.68 µM
IC50 (Hela; Homo sapiens, HeLa): 40.7 ± 1.33 µM
IC50 (HepG2; Homo sapiens, HepG2, 48 h): 55.6 ± 3.23 µM
IC50 (HL-60; Homo sapiens, HL-60, 48 h): 111 ± 1.57 µM
IC50 (WI-38; Homo sapiens, WI-38, 48 h): 81.7 ± 1.13 µM

NC(=O)c1cc(C(=O)/C=C/c2cccc(Br)c2)ccc1O [a3]
IC50 (A549; Homo sapiens, A549, 48 h): 59.6 ± 5.23 µM
IC50 (Hela; Homo sapiens, HeLa): 77.6 ± 4.74 µM
IC50 (HepG2; Homo sapiens, HepG2, 48 h): 71.2 ± 4.63 µM
IC50 (HL-60; Homo sapiens, HL-60, 48 h): 141 ± 5.19 µM
IC50 (WI-38; Homo sapiens, WI-38, 48 h): 126.2 ± 0.46 µM

carbonyl cyanide m-chlorophenyl hydrazine [CCCP, reference compound]
JC-1 (FITC), right of the gate line (green fluorescence) [2]: 99.98%

NC(=O)c1cc(C(=O)/C=C/c2ccc(Br)cc2)ccc1O [a4]
IC50 (A549; Homo sapiens, A549, 48 h): 48.2 ± 2.25 µM
IC50 (Hela; Homo sapiens, HeLa): 65.9 ± 7.8 µM
IC50 (HepG2; Homo sapiens, HepG2, 48 h): 46.41 ± 0.05 µM
IC50 (HL-60; Homo sapiens, HL-60, 48 h): 110 ± 2.04 µM
IC50 (WI-38; Homo sapiens, WI-38, 48 h): 100 ± 11.5 µM

COc1ccc(/C=C/C(=O)c2ccc(O)c(C(N)=O)c2)c(OC)c1 [a12]
IC50 (A549; Homo sapiens, A549, 48 h): 41.2 ± 2.15 µM
IC50 (Hela; Homo sapiens, HeLa): 35.3 ± 2.13 µM
IC50 (HepG2; Homo sapiens, HepG2, 48 h): 54.37 ± 0.52 µM
IC50 (HL-60; Homo sapiens, HL-60, 48 h): 160 ± 3.59 µM
IC50 (WI-38; Homo sapiens, WI-38, 48 h): 123 ± 2.45 µM
IC50 [1]: 23.3 to 54.4 µM

Cc1ccc(/C=C/C(=O)c2ccc(O)c(C(N)=O)c2)cc1 [a8]
IC50 (A549; Homo sapiens, A549, 48 h): 65 ± 2.35 µM
IC50 (Hela; Homo sapiens, HeLa): 53.6 ± 0.67 µM
IC50 (HepG2; Homo sapiens, HepG2, 48 h): 57.4 ± 3.07 µM
IC50 (HL-60; Homo sapiens, HL-60, 48 h): 301 ± 3.53 µM
IC50 (WI-38; Homo sapiens, WI-38, 48 h): 147 ± 13.2 µM

NC(=O)c1cc(C(=O)/C=C/c2ccccc2)ccc1O [a5]
IC50 (A549; Homo sapiens, A549, 48 h): 57.2 ± 1.53 µM
IC50 (Hela; Homo sapiens, HeLa): 82.2 ± 4.8 µM
IC50 (HepG2; Homo sapiens, HepG2, 48 h): 68.1 ± 5.51 µM
IC50 (HL-60; Homo sapiens, HL-60, 48 h): 108 ± 3.5 µM
IC50 (WI-38; Homo sapiens, WI-38, 48 h): 127 ± 6.6 µM

NC(=O)c1cc(C(=O)/C=C/c2cccc(Cl)c2)ccc1O [a2]
IC50 (A549; Homo sapiens, A549, 48 h): 82.5 ± 3.61 µM
IC50 (Hela; Homo sapiens, HeLa): 98.9 ± 2.9 µM
IC50 (HepG2; Homo sapiens, HepG2, 48 h): 77 ± 1.34 µM
IC50 (HL-60; Homo sapiens, HL-60, 48 h): 135 ± 2.45 µM
IC50 (WI-38; Homo sapiens, WI-38, 48 h): 122 ± 2.33 µM

O=c1[nH]cc(F)c(=O)[nH]1 [5-FU, reference compound]
IC50 (A549; 48 h): 53.7 ± 1.16 µM
IC50 (Hela): 35.2 ± 1.39 µM
IC50 (HepG2; 48 h): 42.9 ± 2.88 µM
IC50 (HL-60; 48 h): 165 ± 4.74 µM
IC50 (WI-38; 48 h): 62.8 ± 2.03 µM

NC(=O)c1cc(C(=O)/C=C/c2ccc(F)cc2)ccc1O [a1]
IC50 (A549; Homo sapiens, A549, 48 h): 107 ± 2.14 µM
IC50 (Hela; Homo sapiens, HeLa): 125 ± 6.92 µM
IC50 (HepG2; Homo sapiens, HepG2, 48 h): 135 ± 9.79 µM
IC50 (HL-60; Homo sapiens, HL-60, 48 h): 131 ± 5.38 µM
IC50 (WI-38; Homo sapiens, WI-38, 48 h): 229 ± 7.38 µM

COc1ccc(/C=C/C(=O)c2ccc(O)c(C(N)=O)c2)cc1OC [a13]
IC50 (A549; Homo sapiens, A549, 48 h): 37.6 ± 1.11 µM
IC50 (Hela; Homo sapiens, HeLa): 31.8 ± 1.62 µM
IC50 (HepG2; Homo sapiens, HepG2, 48 h): 50.3 ± 4.03 µM
IC50 (HL-60; Homo sapiens, HL-60, 48 h): 134 ± 4.44 µM
IC50 (WI-38; Homo sapiens, WI-38, 48 h): 118 ± 3.53 µM
IC50 [1]: 23.3 to 54.4 µM

COc1cccc(/C=C/C(=O)c2ccc(O)c(C(N)=O)c2)c1 [a10]
IC50 (A549; Homo sapiens, A549, 48 h): 45.6 ± 1.05 µM
IC50 (Hela; Homo sapiens, HeLa): 54.4 ± 1.11 µM
IC50 (HepG2; Homo sapiens, HepG2, 48 h): 70.8 ± 4.03 µM
IC50 (HL-60; Homo sapiens, HL-60, 48 h): 131 ± 4.64 µM
IC50 (WI-38; Homo sapiens, WI-38, 48 h): 93.3 ± 3.13 µM

Cc1ccccc1/C=C/C(=O)c1ccc(O)c(C(N)=O)c1 [a6]
IC50 (A549; Homo sapiens, A549, 48 h): 51.3 ± 2.11 µM
IC50 (Hela; Homo sapiens, HeLa): 74.8 ± 2.33 µM
IC50 (HepG2; Homo sapiens, HepG2, 48 h): 75.4 ± 3.27 µM
IC50 (HL-60; Homo sapiens, HL-60, 48 h): 213 ± 2.98 µM
IC50 (WI-38; Homo sapiens, WI-38, 48 h): 109 ± 1.49 µM

COc1ccccc1/C=C/C(=O)c1ccc(O)c(C(N)=O)c1 [a9]
IC50 (A549; Homo sapiens, A549, 48 h): 57.6 ± 1.42 µM
IC50 (Hela; Homo sapiens, HeLa): 65.1 ± 1.34 µM
IC50 (HepG2; Homo sapiens, HepG2, 48 h): 80.3 ± 1.87 µM
IC50 (HL-60; Homo sapiens, HL-60, 48 h): 210 ± 3.03 µM
IC50 (WI-38; Homo sapiens, WI-38, 48 h): 98.5 ± 4.91 µM

Source: article PMC6874057, “Synthesis of Chalcone Derivatives: Inducing Apoptosis of HepG2 Cells via Regulating Reactive Oxygen Species and Mitochondrial Pathway” (Frontiers in Pharmacology, 2019)
